Test results as given in patent US11708348B2, “Protease inhibitors for treatment of coronavirus infections” (The Scripps Research Institute, priority 2021, dated 2023).
Counter-ions that a name gives are not always drawn. Like-named read-outs stand apart in the source and are kept apart here.

Test system: SARS-CoV-2 strain USA-WA1/2020
Assay: microbe, parasite or virus in culture
Assay type: cell-based
Settings: Severe acute respiratory syndrome coronavirus 2, HeLa-ACE2, 24 h, read-out: EC50, uM (Hela)
[1] = HeLa-ACE2 cells, SARS-CoV-2 infection, 24 h, class symbols
[2] = HeLa-ACE2 cells, SARS-CoV-2 infection, 24 h

SMILES | EC50 [1] [µM] | EC50 [2] [µM] | other results
CC(C)C[C@H](NC(=O)C(=O)Nc1cccc(F)c1F)C(=O)N[C@@H](C[C@@H]1CCNC1=O)C(=O)COc1c(F)c(F)cc(F)c1F [Compound 71, N1-(2,3-difluorophenyl)-N2-((S)-4-methyl-1-oxo-1-(((S)-3-oxo-1-((S)-2-oxopyrrolidin-3-yl)-4-(2,3,5,6-tetrafluorophenoxy)butan-2-yl)amino)pentan-2-yl)oxalamide] | 0.05 to 0.2 |  | 
COc1cccc2c1OC(C(=O)N[C@@H](CC(C)C)C(=O)N[C@@H](C[C@@H]1CCNC1=O)C(=O)COC(F)(F)F)C2 (stereo partly drawn) [Compound 255, 7-methoxy-N-((S)-4-methyl-1-oxo-1-(((S)-3-oxo-1-((S)-2-oxopyrrolidin-3-yl)-4-(trifluoromethoxy)butan-2-yl)amino)pentan-2-yl)-2,3-dihydrobenzofuran-2-carboxamide] | < 0.05 |  | 
CC1(C)[C@@H]2[C@@H](C(=O)N[C@@H](C[C@@H]3CCNC3=O)C(=O)COC(F)(F)F)N(C(=O)[C@H](O)C(F)(F)F)C[C@@H]21 [Compound 386, (1R,2S,5S)-6,6-dimethyl-N-((S)-3-oxo-1-((S)-2-oxopyrrolidin-3-yl)-4-(trifluoromethoxy)butan-2-yl)-3-((S)-3,3,3-trifluoro-2-hydroxypropanoyl)-3-azabicyclo[3.1.0]-hexane-2-carboxamide] | 0.05 to 0.2 |  | 
CC(C)(C[C@H](NC(=O)C(=O)NC12CC(F)(C1)C2)C(=O)N[C@@H](C[C@@H]1CCNC1=O)C(=O)COC(F)(F)F)C(F)F [Compound 564, N1-((S)-5,5-difluoro-4,4-dimethyl-1-oxo-1-(((S)-3-oxo-1-((S)-2-oxopyrrolidin-3-yl)-4-(trifluoromethoxy)butan-2-yl)amino)pentan-2-yl)-N2-(3-fluorobicyclo[1.1.1]-pentan-1-yl)oxalamide] |  | < 0.05 | 
COCc1ccccc1NC(=O)C(=O)N[C@@H](CC(C)C)C(=O)N[C@@H](C[C@@H]1CCNC1=O)C(=O)COc1c(F)c(F)cc(F)c1F [Compound 143, N1-(2-(methoxymethyl)phenyl)-N2-((S)-4-methyl-1-oxo-1-(((S)-3-oxo-1-((S)-2-oxopyrrolidin-3-yl)-4-(2,3,5,6-tetrafluorophenoxy)butan-2-yl)amino)pentan-2-yl)oxalamide] | 0.05 to 0.2 |  | 
Cc1cccnc1NC(=O)C(=O)N1C[C@@H]2CCC[C@@H]2[C@H]1C(=O)N[C@@H](C[C@@H]1CCNC1=O)C(=O)COC(F)(F)F [Compound 550, (1S,3aR,6aS)-2-(2-((3-methylpyridin-2-yl)amino)-2-oxoacetyl)-N-((S)-3-oxo-1-((S)-2-oxopyrrolidin-3-yl)-4-(trifluoromethoxy)butan-2-yl)octahydrocyclo-penta[c]pyrrole-1-carboxamide] |  |  | EC50 (HeLa-ACE2 cells, SARS-CoV-2 infection, 24 h, given as bound): > 1 µM
CC(C)(C)NC(=O)C(=O)N1CC2(CCCC2)CC1C(=O)N[C@@H](C[C@@H]1CCNC1=O)C(=O)COC(F)(F)F (stereo partly drawn) [Compound 657, 2-(2-(tert-butylamino)-2-oxoacetyl)-N-((S)-3-oxo-1-((S)-2-oxopyrrolidin-3-yl)-4-(trifluoromethoxy)butan-2-yl)-2-azaspiro[4.4]nonane-3-carboxamide] |  | < 0.05 | 
CC(C)C[C@H](NC(=O)[C@H](O)CF)C(=O)N[C@@H](C[C@@H]1CCNC1=O)C(=O)COC(F)(F)F [Compound 396, (S)-2-((S)-3-fluoro-2-hydroxypropanamido)-4-methyl-N-((S)-3-oxo-1-((S)-2-oxopyrrolidin-3-yl)-4-(trifluoromethoxy)butan-2-yl)pentanamide] | 0.2 to 0.5 |  | 
O=C1NCC[C@H]1C[C@H](NC(=O)[C@@H]1CC2(CC2)CN1C(=O)c1ccc(F)cc1F)C(=O)COC(F)(F)F [Compound 710, (S)-5-(2,4-difluorobenzoyl)-N-((S)-3-oxo-l-((S)-2-oxopyrrolidin-3-yl)-4-(trifluoromethoxy)butan-2-yl)-5-azaspiro[2.4]heptane-6-carboxamide] |  | 0.2 to 0.5 | 
O=C(Nc1ccccc1Cc1ccccc1)C(=O)N[C@@H](CC1CCCCC1)C(=O)N[C@@H](C[C@@H]1CCNC1=O)C(=O)COc1c(F)c(F)cc(F)c1F [Compound 111, N1-(2-benzylphenyl)-N2-((S)-3-cyclohexyl-1-oxo-1-(((S)-3-oxo-1-((S)-2-oxopyrrolidin-3-yl)-4-(2,3,5,6-tetrafluorophenoxy)butan-2-yl)amino)propan-2-yl)oxalamide] | 0.05 to 0.2 |  | 
CC(C)(C)NC(=O)C(=O)N1CCC[C@@]1(CC1CC1)C(=O)N[C@@H](C[C@@H]1CCNC1=O)C(=O)COC(F)(F)F [Compound 567, (R)-1-(2-(tert-butylamino)-2-oxoacetyl)-2-(cyclopro-pylmethyl)-N-((S)-3-oxo-1-((S)-2-oxopyrrolidin-3-yl)-4-(trifluoromethoxy)butan-2-yl)pyrrolidine-2-carboxamide] |  | 0.2 to 0.5 | 
O=C1NCC[C@H]1C[C@H](NC(=O)[C@@H]1CC2(CC2)CN1C(=O)[C@@H](O)C(F)(F)F)C(=O)COC(F)(F)F [Compound 387, (S)-N-((S)-3-oxo-1-((S)-2-oxopyrrolidin-3-yl)-4-(trifluoromethoxy)butan-2-yl)-5-((R)-3,3,3-trifluoro-2-hydroxypropanoyl)-5-azaspiro[2.4]-heptane-6-carboxamide] | 0.05 to 0.2 |  | 
CC(C)C[C@H](NC(=O)OCc1cccc(Cl)c1)C(=O)N[C@@H](C[C@@H]1CCNC1=O)C(=O)COc1c(F)c(F)cc(F)c1F [Compound 22, 3-chlorobenzyl ((S)-4-methyl-1-oxo-1-(((S)-3-oxo-1-((S)-2-oxopyrrolidin-3-yl)-4-(2,3,5,6-tetrafluorophenoxy)butan-2-yl)amino)pentan-2-yl)carbamate] | 0.2 to 0.5 |  | 
CC(F)(F)CCC(=O)N1CC2(CC2)C[C@H]1C(=O)N[C@@H](C[C@@H]1CCNC1=O)C(=O)COC(F)(F)F [Compound 678, (S)-5-(4,4-difluoropentanoyl)-N-((S)-3-oxo-1-((S)-2-oxopyrrolidin-3-yl)-4-(trifluoromethoxy)butan-2-yl)-5-azaspiro[2.4]heptane-6-carboxamide] |  | < 0.05 | 
[2H]C([2H])([2H])C([2H])(C([2H])([2H])[2H])C([2H])([2H])C(=O)N1CC2(CC2)C[C@H]1C(=O)N[C@@H](C[C@@H]1CCNC1=O)C(=O)COC(F)(F)F [Compound 737, (S)-5-(3-(methyl-d3)butanoyl-2,2,3,4,4,4-d6)-N-((S)-3-oxo-1-((S)-2-oxopyrrolidin-3-yl)-4-(trifluoromethoxy)butan-2-yl)-5-azaspiro[2.4]heptane-6-carboxamide] |  | < 0.05 | 
O=C1NCC[C@H]1C[C@H](NC(=O)[C@@H]1[C@H]2CCC[C@H]2CN1C(=O)OC1CCOC1)C(=O)COC(F)(F)F (stereo partly drawn) [Compound 559, tetrahydrofuran-3-yl (1S,3aR,6aS)-1-(((S)-3-oxo-1-((S)-2-oxopyrrolidin-3-yl)-4-(trifluoromethoxy)butan-2-yl)carbamoyl)-hexahydrocyclo-penta[c]-pyrrole-2(1H)-carboxylate] |  | 0.05 to 0.2 | 
CC(C)(C)CCC(=O)N1CC2(CC2)C[C@H]1C(=O)N[C@@H](C[C@@H]1CCNC1=O)C(=O)COC(F)(F)F [Compound 459, (S)-5-(4,4-dimethylpentanoyl)-N-((S)-3-oxo-1-((S)-2-oxopyrrolidin-3-yl)-4-(trifluoromethoxy)butan-2-yl)-5-azaspiro[2.4]heptane-6-carboxamide] |  | < 0.05 | 
O=C(N[C@@H](CC1CC1)C(=O)N[C@@H](C[C@@H]1CCNC1=O)C(=O)COC(F)(F)F)c1cc(Cc2ccccc2)on1 [Compound 462, 5-benzyl-N-((S)-3-cyclopropyl-1-oxo-1-(((S)-3-oxo-1-((S)-2-oxopyrrolidin-3-yl)-4-(trifluoromethoxy)butan-2-yl)amino)propan-2-yl)isoxazole-3-carboxamide] |  | < 0.05 | 
CC(C)C[C@H](NC(=O)C(=O)Nc1ccccc1F)C(=O)N[C@@H](CCCCN)C(=O)COc1c(F)c(F)cc(F)c1F [Compound 142, N^1—((S)-1-(((S)-7-amino-2-oxo-1-(2,3,5,6-tetrafluorophenoxy)heptan-3-yl)amino)-4-methyl-1-oxopentan-2-yl)-N^2-(2-fluorophenyl)oxalamide hydrochloride] |  |  | EC50: < 0.05 µM
[2H]C([2H])([2H])C([2H])([2H])C([2H])([2H])C([2H])([2H])C([2H])([2H])C(=O)N1CC2(CC2)C[C@H]1C(=O)N[C@@H](C[C@@H]1CCNC1=O)C(=O)COC(F)(F)F [Compound 733, (S)-5-(hexanoyl-d 11)-N-((S)-3-oxo-1-((S)-2-oxopyrrolidin-3-yl)-4-(trifluoromethoxy)butan-2-yl)-5-azaspiro[2.4]heptane-6-carboxamide] |  | < 0.05 | 
CC(C)(C)[C@H](NC(=O)C(=O)Nc1ccccc1F)C(=O)N[C@@H](C[C@@H]1CCNC1=O)C(=O)COc1c(F)c(F)cc(F)c1F [Compound 119, N1-((S)-3,3-dimethyl-1-oxo-1-(((S)-3-oxo-1-((S)-2-oxopyrrolidin-3-yl)-4-(2,3,5,6-tetrafluorophenoxy)butan-2-yl)amino)butan-2-yl)-N2-(2-fluorophenyl)oxalamide] | 0.2 to 0.5 |  | 
CCC[C@@H](O)C(=O)N1C[C@H]2[C@@H]([C@H]1C(=O)N[C@@H](C[C@@H]1CCNC1=O)C(=O)COC(F)(F)F)C2(C)C [Compound 378, (1R,2S,5S)-3-((R)-2-hydroxypentanoyl)-6,6-dimethyl-N-((S)-3-oxo-1-((S)-2-oxopyrrolidin-3-yl)-4-(trifluoromethoxy)butan-2-yl)-3-azabicyclo[3.1.0]-hexane-2-carboxamide] | < 0.05 |  | 
CC(C)C[C@H](NC(=O)C(=O)Nc1cc(F)ccc1F)C(=O)N[C@@H](C[C@@H]1CCNC1=O)C(=O)COc1c(F)c(F)cc(F)c1F [Compound 72, Nl-(2,5-difluorophenyl)-N2-((S)-4-methyl-1-oxo-1-(((S)-3-oxo-1-((S)-2-oxopyrrolidin-3-yl)-4-(2,3,5,6-tetrafluorophenoxy)butan-2-yl)amino)pentan-2-yl)oxalamide] | 0.05 to 0.2 |  | 
